Laboratory results: patent publication EP0908457B1, “3-(1,2-benzisothiazol- and isoxazol-5-Y1)-2,4(1H,3H)-pyrimidinedione or thione and 3-(1,2-benzisothiazol- and isoxazol-5-y1)-4(3H)-pyrimidinone or thione herbicidal agents” (BASF AKTIENGESELLSCHAFT, priority 1997, dated 1999)

Key:
Cyperus iria = experiment: Preemergence weed control under flooded paddy conditions, CYPIR (Rice Flatsedge); type: in vivo; conditions: flooded paddy, rated three to four weeks after treatment; for CYPIR herbicidal effect rating: preemergence; for herbicidal effect rating, CYPIR: preemergence weeds; on herbicidal effect rating, CYPIR: meaning of each grade not given here
[1] = tested on: Echinochloa oryzoides (Ard.) Fritsch.; experiment: Preemergence weed control under flooded paddy conditions, ECHORC (Watergrass (Calif.)); type: in vivo; conditions: flooded paddy, rated three to four weeks after treatment; for ECHORC herbicidal effect rating: preemergence; for herbicidal effect rating, ECHORC: preemergence weeds; on herbicidal effect rating, ECHORC: meaning of each grade not given here
[2] = tested on: Oryza sativa, (L.) Tebonnet; experiment: Rice tolerance to post-transplant applications under flooded paddy conditions (Example 187), ORYSAT (Rice, Tebonnet); conditions: rated three to four weeks after treatment
Sagittaria pygmaea, L. = experiment: Preemergence weed control under flooded paddy conditions, SAGPY (Arrowhead (Pygmaea)); type: in vivo; conditions: flooded paddy, rated three to four weeks after treatment; for SAGPY herbicidal effect rating: preemergence; for herbicidal effect rating, SAGPY: preemergence weeds; on herbicidal effect rating, SAGPY: meaning of each grade not given here
[3] = tested on: Monochoria vaginalis, Presl.; experiment: Preemergence weed control under flooded paddy conditions, MOOVA (Monochoria); type: in vivo; conditions: flooded paddy, rated three to four weeks after treatment; for MOOVA herbicidal effect rating: preemergence; for herbicidal effect rating, MOOVA: preemergence weeds; on herbicidal effect rating, MOOVA: meaning of each grade not given here

| SMILES | CYPIR herbicidal effect rating (Cyperus iria; Rate 0.0320 kg/ha) | CYPIR herbicidal effect rating (Cyperus iria; Rate 0.0620 kg/ha) | CYPIR herbicidal effect rating (Cyperus iria; Rate 0.1250 kg/ha) | CYPIR herbicidal effect rating (Cyperus iria; Rate 0.2500 kg/ha) | ECHORC herbicidal effect rating ([1]; Rate 0.0320 kg/ha) | ECHORC herbicidal effect rating ([1]; Rate 0.0620 kg/ha) | ECHORC herbicidal effect rating ([1]; Rate 0.1250 kg/ha) | ECHORC herbicidal effect rating ([1]; Rate 0.2500 kg/ha) | ORYSAT herbicidal effect rating ([2]; Rate 0.0320 kg/ha) | ORYSAT herbicidal effect rating ([2]; Rate 0.0620 kg/ha) | ORYSAT herbicidal effect rating ([2]; Rate 0.1250 kg/ha) | ORYSAT herbicidal effect rating ([2]; Rate 0.2500 kg/ha) | SAGPY herbicidal effect rating (Sagittaria pygmaea, L.; Rate 0.0320 kg/ha) | SAGPY herbicidal effect rating (Sagittaria pygmaea, L.; Rate 0.0620 kg/ha) | SAGPY herbicidal effect rating (Sagittaria pygmaea, L.; Rate 0.1250 kg/ha) | SAGPY herbicidal effect rating (Sagittaria pygmaea, L.; Rate 0.2500 kg/ha) | MOOVA herbicidal effect rating ([3]; Rate 0.0320 kg/ha) | MOOVA herbicidal effect rating ([3]; Rate 0.0620 kg/ha) | MOOVA herbicidal effect rating ([3]; Rate 0.1250 kg/ha) | MOOVA herbicidal effect rating ([3]; Rate 0.2500 kg/ha) | other results |
| --- | --- | --- | --- | --- | --- | --- | --- | --- | --- | --- | --- | --- | --- | --- | --- | --- | --- | --- | --- | --- | --- |
| Cn1c(C(F)(F)F)cc(=O)n(-c2ccc3snc(/C=C/C=O)c3c2)c1=O [Example 291, 1,2-Benzisothiazole-3-acrylaldehyde, 5-[3,6-dihydro-3-methyl-2,6-dioxo-4-(trifluoromethyl)-1(2H)-pyrimidinyl]-, (E)-] | 0.0 | 0.0 | 9.0 | 9.0 | 0.0 | 0.0 | 0.0 | 0.0 | 0.0 | 0.0 | 0.0 | 0.0 | 0.0 | 0.0 | 0.0 | 0.0 | 0.0 | 9.0 | 9.0 | 9.0 | – |
| Cn1c(C(F)(F)F)cc(=O)n(-c2ccc3snc(COCC(=O)O)c3c2)c1=O [Example 293, Acetic acid, {{5-[3,6-dihydro-3-methyl-2,6-dioxo-4-(trifluoromethyl)-1(2H)-pyrimidinyl]-1,2-benzisothiazol-3-yl}methoxy}-] | 9.0 | 9.0 | 9.0 | 9.0 | 0.0 | 0.0 | 0.0 | 0.0 | 0.0 | 0.0 | 0.0 | 0.0 | 0.0 | 0.0 | 0.0 | 6.0 | 9.0 | 9.0 | 9.0 | 9.0 | – |
| CNC.Cn1c(C(F)(F)F)cc(=O)n(-c2ccc3snc(CSCC(=O)NS(C)(=O)=O)c3c2)c1=O [Example 298, Acetamide, 2-{{{5-[3,6-dihydro-3-methyl-2,6-dioxo-4-(trifluoromethyl)-1(2H)-pyrimidinyl]-1,2-benzisothiazol-3-yl}methyl}thio}-N-(methylsulfonyl)-, dimethylamine salt] | – | – | – | – | – | – | – | – | – | – | – | – | – | – | – | – | – | – | – | – | herbicidal effect rating, CYPIR (Cyperus iria; Rate 0.0320 kg/ha): 3.0; herbicidal effect rating, CYPIR (Cyperus iria; Rate 0.0620 kg/ha): 9.0; herbicidal effect rating, CYPIR (Cyperus iria; Rate 0.1250 kg/ha): 9.0; herbicidal effect rating, CYPIR (Cyperus iria; Rate 0.2500 kg/ha): 9.0; herbicidal effect rating, ECHORC ([1]; Rate 0.0320 kg/ha): 0.0; herbicidal effect rating, ECHORC ([1]; Rate 0.0620 kg/ha): 0.0; herbicidal effect rating, ECHORC ([1]; Rate 0.1250 kg/ha): 0.0; herbicidal effect rating, ECHORC ([1]; Rate 0.2500 kg/ha): 3.0; herbicidal effect rating ORYSAT ([2]; Rate 0.0320 kg/ha): 0.0; herbicidal effect rating ORYSAT ([2]; Rate 0.0620 kg/ha): 0.0; herbicidal effect rating ORYSAT ([2]; Rate 0.1250 kg/ha): 0.0; herbicidal effect rating ORYSAT ([2]; Rate 0.2500 kg/ha): 0.0; herbicidal effect rating, SAGPY (Sagittaria pygmaea, L.; Rate 0.0320 kg/ha): 0.0; herbicidal effect rating, SAGPY (Sagittaria pygmaea, L.; Rate 0.0620 kg/ha): 0.0; herbicidal effect rating, SAGPY (Sagittaria pygmaea, L.; Rate 0.1250 kg/ha): 3.0; herbicidal effect rating, SAGPY (Sagittaria pygmaea, L.; Rate 0.2500 kg/ha): 9.0; herbicidal effect rating, MOOVA ([3]; Rate 0.0320 kg/ha): 9.0; herbicidal effect rating, MOOVA ([3]; Rate 0.0620 kg/ha): 9.0; herbicidal effect rating, MOOVA ([3]; Rate 0.1250 kg/ha): 9.0; herbicidal effect rating, MOOVA ([3]; Rate 0.2500 kg/ha): 9.0 |
| CNC.Cn1c(C(F)(F)F)cc(=O)n(-c2ccc3snc(CSCC(=O)O)c3c2)c1=O [Example 299, Acetic acid, {{{5-[3,6-dihydro-3-methyl-2,6-dioxo-4-(trifluoromethyl)-1(2H)-pyrimidinyl)-1,2-benzisothiazol-3-yl}methyl}thio}-, dimethylamine salt] | – | – | – | – | – | – | – | – | – | – | – | – | – | – | – | – | – | – | – | – | herbicidal effect rating, CYPIR (Cyperus iria; Rate 0.0320 kg/ha): 3.0; herbicidal effect rating, CYPIR (Cyperus iria; Rate 0.0620 kg/ha): 7.0; herbicidal effect rating, CYPIR (Cyperus iria; Rate 0.1250 kg/ha): 9.0; herbicidal effect rating, CYPIR (Cyperus iria; Rate 0.2500 kg/ha): 9.0; herbicidal effect rating, ECHORC ([1]; Rate 0.0320 kg/ha): 0.0; herbicidal effect rating, ECHORC ([1]; Rate 0.0620 kg/ha): 0.0; herbicidal effect rating, ECHORC ([1]; Rate 0.1250 kg/ha): 2.0; herbicidal effect rating, ECHORC ([1]; Rate 0.2500 kg/ha): 5.0; herbicidal effect rating ORYSAT ([2]; Rate 0.0320 kg/ha): 0.0; herbicidal effect rating ORYSAT ([2]; Rate 0.0620 kg/ha): 0.0; herbicidal effect rating ORYSAT ([2]; Rate 0.1250 kg/ha): 3.0; herbicidal effect rating ORYSAT ([2]; Rate 0.2500 kg/ha): 5.0; herbicidal effect rating, SAGPY (Sagittaria pygmaea, L.; Rate 0.0320 kg/ha): 0.0; herbicidal effect rating, SAGPY (Sagittaria pygmaea, L.; Rate 0.0620 kg/ha): 0.0; herbicidal effect rating, SAGPY (Sagittaria pygmaea, L.; Rate 0.1250 kg/ha): 3.0; herbicidal effect rating, SAGPY (Sagittaria pygmaea, L.; Rate 0.2500 kg/ha): 7.0; herbicidal effect rating, MOOVA ([3]; Rate 0.0320 kg/ha): 7.0; herbicidal effect rating, MOOVA ([3]; Rate 0.0620 kg/ha): 9.0; herbicidal effect rating, MOOVA ([3]; Rate 0.1250 kg/ha): 9.0; herbicidal effect rating, MOOVA ([3]; Rate 0.2500 kg/ha): 9.0 |
